Reference: patent US4100346A, “Certain 7(o-amino-methyl- or methylaminomethylphenyl- or cyclohexadienyl- or thienylacetamide)-3[1-carboxymethyl-(or ethyl- or propyl-)-tetrazol-5-ylthiomethyl]-3-cephem-4-carboxylic acids” (Bristol-Myers Company, priority 1976, dated 1978)
Values after ≈ are worked out from the molar mass of the structure shown. Where two headings read alike, the source gives them in different places.

Tests used:
Staphylococcus Aureus = experiment: Effect of inoculum size on susceptibility of Staphylococcus aureus; assay type: cell-based; conditions: for MICB /MICA: MIC at 10^6 over MIC at 10^2 organisms
Escherichia coli = experiment: Effect of inoculum size on susceptibility of Enterobacteriaceae
Bacteroides Fragilis = experiment: Growth inhibitory activity, antibiotic dilution technique (obligate anaerobes); assay type: cell-based; conditions: 3 strains, geometric mean when applicable, read-out: Minimum inhibitory concentration
Protocol: Antibiotic spectrum. […] Procedures were as follows:
c. Obligate anaerobes. The assay was performed on solid medium, consisting of Brain Heart Infusion Broth (BBL) supplemented with 5% defibrinated sheep blood and 1% Ionagar (Colab). […] The plates were incubated at 37° C. for 48 hours under the oxygen-free conditions attained with a Gas-Pak (BBL) Brewer jar system.

Enterobacter cloacae = experiment: Effect of inoculum size on susceptibility of Enterobacteriaceae
Haemophilus influenzae = experiment: Growth inhibitory activity, antibiotic dilution technique; conditions: including 9 ampicillin-resistant strains
[1] = system: Bordetella bronchiseptica; experiment: as above; conditions: read-out: Minimum inhibitory concentration
Enterobacter aerogenes = experiment: Effect of inoculum size on susceptibility of Enterobacteriaceae; conditions: Klebsiella aerogenes, read-out: Minimum Inhibitory Concentration, Enterobacter aerogenes strain 1
Proteus mirabilis = experiment: as above

## CC(=O)OCC1=C(C(=O)O)N2C(=O)[C@@H](NC(=O)Cc3cccs3)[C@H]2SC1 [Cephalothin]
Staphylococcus Aureus
  effect of cell concentration on growth inhibitory activity: slightly
Staphylococcus Aureus; Lacking penicillinase, 3 strains
  MICB /MICA: 1.0
Staphylococcus Aureus; Penicillinase producer, 26 strains
  MICB /MICA: 2.2
Escherichia coli; read-out: Minimum Inhibitory Concentration, Escherichia coli strain 1, A, Inoculum of 10^2 organisms
  MIC: 8 µg/mL (≈ 20.2 µM)
Escherichia coli; read-out: Minimum Inhibitory Concentration, Escherichia coli strain 1, B, Inoculum of 10^6 organisms
  MIC: 32 µg/mL (≈ 80.7 µM)
Escherichia coli; read-out: Minimum Inhibitory Concentration, Escherichia coli strain 2, A, Inoculum of 10^2 organisms
  MIC: 16 µg/mL (≈ 40.4 µM)
Escherichia coli; read-out: Minimum Inhibitory Concentration, Escherichia coli strain 2, B, Inoculum of 10^6 organisms
  MIC: 32 µg/mL (≈ 80.7 µM)
Escherichia coli; read-out: Minimum Inhibitory Concentration, Escherichia coli strain 3, A, Inoculum of 10^2 organisms
  MIC: 4 µg/mL (≈ 10.1 µM)
Escherichia coli; read-out: Minimum Inhibitory Concentration, Escherichia coli strain 3, B, Inoculum of 10^6 organisms
  MIC: 16 µg/mL (≈ 40.4 µM)
Escherichia coli; read-out: Minimum Inhibitory Concentration, Escherichia coli strain 4, A, Inoculum of 10^2 organisms
  MIC: 4 µg/mL (≈ 10.1 µM)
Escherichia coli; read-out: Minimum Inhibitory Concentration, Escherichia coli strain 4, B, Inoculum of 10^6 organisms
  MIC: 32 µg/mL (≈ 80.7 µM)
Escherichia coli; read-out: Minimum Inhibitory Concentration, Escherichia coli strain 5, A, Inoculum of 10^2 organisms
  MIC: 4 µg/mL (≈ 10.1 µM)
Escherichia coli; read-out: Minimum Inhibitory Concentration, Escherichia coli strain 5, B, Inoculum of 10^6 organisms
  MIC: 32 µg/mL (≈ 80.7 µM)
Escherichia coli; read-out: Minimum Inhibitory Concentration, Escherichia coli strain 6, A, Inoculum of 10^2 organisms
  MIC: 8 µg/mL (≈ 20.2 µM)
Escherichia coli; read-out: Minimum Inhibitory Concentration, Escherichia coli strain 6, B, Inoculum of 10^6 organisms
  MIC: 16 µg/mL (≈ 40.4 µM)
Escherichia coli; read-out: Minimum Inhibitory Concentration, Escherichia coli strain 7, A, Inoculum of 10^2 organisms
  MIC: 1 µg/mL (≈ 2.52 µM)
Escherichia coli; read-out: Minimum Inhibitory Concentration, Escherichia coli strain 7, B, Inoculum of 10^6 organisms
  MIC: 8 µg/mL (≈ 20.2 µM)
Bacteroides Fragilis
  MIC: 125 µg/mL (≈ 315 µM)
Enterobacter cloacae; read-out: Minimum Inhibitory Concentration, Enterobacter cloacae strain 1, A, Inoculum of 10^2 organisms
  MIC: 8 µg/mL (≈ 20.2 µM)
Enterobacter cloacae; read-out: Minimum Inhibitory Concentration, Enterobacter cloacae strain 1, B, Inoculum of 10^6 organisms
  MIC: > 250 µg/mL
Enterobacter cloacae; read-out: Minimum Inhibitory Concentration, Enterobacter cloacae strain 2, A, Inoculum of 10^2 organisms
  MIC: 16 µg/mL (≈ 40.4 µM)
Enterobacter cloacae; read-out: Minimum Inhibitory Concentration, Enterobacter cloacae strain 2, B, Inoculum of 10^6 organisms
  MIC: > 250 µg/mL
Enterobacter cloacae; read-out: Minimum Inhibitory Concentration, Enterobacter cloacae strain 3, A, Inoculum of 10^2 organisms
  MIC: 16 µg/mL (≈ 40.4 µM)
Enterobacter cloacae; read-out: Minimum Inhibitory Concentration, Enterobacter cloacae strain 3, B, Inoculum of 10^6 organisms
  MIC: 250 µg/mL (≈ 631 µM)
Enterobacter cloacae; read-out: Minimum Inhibitory Concentration, Enterobacter cloacae strain 4, A, Inoculum of 10^2 organisms
  MIC: 32 µg/mL (≈ 80.7 µM)
Enterobacter cloacae; read-out: Minimum Inhibitory Concentration, Enterobacter cloacae strain 4, B, Inoculum of 10^6 organisms
  MIC: > 250 µg/mL
Enterobacter cloacae; read-out: Minimum Inhibitory Concentration, Enterobacter cloacae strain 5, A, Inoculum of 10^2 organisms
  MIC: 16 µg/mL (≈ 40.4 µM)
Enterobacter cloacae; read-out: Minimum Inhibitory Concentration, Enterobacter cloacae strain 5, B, Inoculum of 10^6 organisms
  MIC: 250 µg/mL (≈ 631 µM)
Haemophilus influenzae
  relative activity against Haemophilus influenzae: more than twice as active
[1]
  MIC: 8 µg/mL (≈ 20.2 µM)
Enterobacter aerogenes; A, Inoculum of 10^2 organisms
  MIC: 32 µg/mL (≈ 80.7 µM)
Enterobacter aerogenes; B, Inoculum of 10^6 organisms
  MIC: > 250 µg/mL
Proteus mirabilis; read-out: Minimum Inhibitory Concentration, Proteus mirabilis strain 1, A, Inoculum of 10^2 organisms
  MIC: 8 µg/mL (≈ 20.2 µM)
Proteus mirabilis; read-out: Minimum Inhibitory Concentration, Proteus mirabilis strain 1, B, Inoculum of 10^6 organisms
  MIC: 16 µg/mL (≈ 40.4 µM)
Proteus mirabilis; read-out: Minimum Inhibitory Concentration, Proteus mirabilis strain 2, A, Inoculum of 10^2 organisms
  MIC: 4 µg/mL (≈ 10.1 µM)
Proteus mirabilis; read-out: Minimum Inhibitory Concentration, Proteus mirabilis strain 2, B, Inoculum of 10^6 organisms
  MIC: 32 µg/mL (≈ 80.7 µM)
Proteus mirabilis; read-out: Minimum Inhibitory Concentration, Proteus mirabilis strain 3, A, Inoculum of 10^2 organisms
  MIC: 16 µg/mL (≈ 40.4 µM)
Proteus mirabilis; read-out: Minimum Inhibitory Concentration, Proteus mirabilis strain 3, B, Inoculum of 10^6 organisms
  MIC: 32 µg/mL (≈ 80.7 µM)
Proteus mirabilis; read-out: Minimum Inhibitory Concentration, Proteus mirabilis strain 4, A, Inoculum of 10^2 organisms
  MIC: 8 µg/mL (≈ 20.2 µM)
Proteus mirabilis; read-out: Minimum Inhibitory Concentration, Proteus mirabilis strain 4, B, Inoculum of 10^6 organisms
  MIC: 32 µg/mL (≈ 80.7 µM)
Proteus mirabilis; read-out: Minimum Inhibitory Concentration, Proteus mirabilis strain 5, A, Inoculum of 10^2 organisms
  MIC: 8 µg/mL (≈ 20.2 µM)
Proteus mirabilis; read-out: Minimum Inhibitory Concentration, Proteus mirabilis strain 5, B, Inoculum of 10^6 organisms
  MIC: 32 µg/mL (≈ 80.7 µM)
